Key:
Type in all cases: in vivo
Details in all cases: Site No. 1 (control site; g active/ha): Pre-emergent Glyphosate 450, Ammonium sulphate 1.12 kg/ha
Foxtail Barley = assay: Example 7 field sites: visual % control of Foxtail Barley
Method: (§1) Another study was conducted to test various application methods using flucarbazone-sodium (PREPARE) in a pre-emergent application followed by post-emergent application with propoxycarbazone (OLYMPUS®), pyroxsulam (Simplicity®), sulfosulfuron ([…]®), pinoxaden (AXIAL™ XL) and flucarbazone-sodium (EVEREST®) to control Bromus secalinus and Foxtail Barley.
(§2) To better evaluate the ability of each treatment scheme in controlling unwanted vegetation in a planting site, a group of nearly identical crop planting sites (Site 1-Site 10) were subjected to different treatment schemes. Again, Site No. 1 was a control site. Sites No. 2-Sites No. 10 were treated with either a pre-emergent treatment or sequential pre-emergent and post-emergent treatment schemes. Treatment rates were based on the recommended lower rate provided on the product label (grams of active ingredient per hectare). […]
(§3) Site No. 1 was not treated with a pre-emergent treatment or a post-emergent treatment, allowing Bromus secalinus and Foxtail Barley to emerge either with the crop or after crop emergence. […] Thus, percent control for Bromus secalinus and Foxtail Barley were evaluated as the weed-free area in the particular site in comparison to the completely weed covered Site No. 1. […]

Wild Oat [1] = assay: Example 8 field sites: visual % control of Wild Oat
Method: as §1, with “(PrePare)” for “(PREPARE)”, “(SIMPLICITY®),” for “(Simplicity®),”, “Wild Oat.” for “Bromus secalinus and Foxtail Barley.”
as §2, with “schemes.” for “schemes. Again,”, “was again” for “was”, “site and sites” for “site. Sites”, “varying” for “either a pre-emergent treatment or sequential pre-emergent and post-emergent”, “Again, the treatment” for “Treatment”
Site No. 1 was not treated with a pre-emergent application or post-emergent application of herbicidally active compounds, allowing Wild Oat to emerge either with the crop or after crop emergence. […] Thus, percent control for Wild Oat was evaluated as the weed-free area in the particular site in comparison to the completely weed covered Site No. 1. Further, the respective crop yield for each crop planting site was also recorded. […]

Wild Oat [2] = assay: Example 6 field sites: visual % control of wild oat
Method: A study was conducted to test various application methods using flucarbazone-sodium (PREPARE) in a pre-emergent application followed by post-emergent application with clodinafop (DISCOVER® NG), pinoxaden (AXIAL™ XL) and flucarbazone-sodium (EVEREST®) for control of wild oat.
To better evaluate the ability of each treatment scheme in controlling unwanted vegetation in a planting site, a group of nearly identical crop planting sites (Site 1-Site 7) were subjected to different treatment schemes. Site No. 1 was to act as a control site and Site No. 2-Sites No. 7 were treated with a pre-emergent treatment or sequential pre-emergent and post-emergent treatment schemes. Treatment rates were based on the recommended rate provided on the product label (grams of active ingredient per hectare). Since the label provides a range, the rate applied is based on the lower recommended rate from the label range. […]
Site No. 1 was not treated with a pre-emergent or a post-emergent application of a herbicidally active compound according to embodiments of the present invention, allowing wild oat to emerge either with the crop or after crop emergence. […] Thus, percent control for wild oat was evaluated as the weed-free area in the particular site in comparison to the completely weed covered Site No. 1. […]

crop = test system: crop
Method: Site No. 1 was again a control site and sites No. 2-Sites No. 10 were treated with varying treatment schemes. […] In all sites, any pre-existing weeds that germinated and grew to cover the sites were removed with glyphosate to ensure a more accurate determination of the viability of each treatment scheme. For Site No. 2-Site No. 10, glyphosate was tank-mixed with PREPARE and applied to each site prior to the emergence of the desired crop.
The remaining sites were allowed the same amount of time for weed growth and were visually compared to crop planting site (Site No. 1). […] Further, the respective crop yield for each crop planting site was also recorded.
Ammonium sulphate is a commercially available fertilizer blend used as an adjuvant to improve performance of glyphosate.

Bromus secalinus = assay: Example 7 field sites: visual % control of Cheat (Bromus secalinus)
Method: as §1, §2, §3

SMILES: O=C(O)CNCP(=O)(O)O [Glyphosate, glyphosate]
- % Control of Foxtail Barley at 86 days after application (Foxtail Barley): 0%
- % Control of Wild Oat at 86 days after application (Wild Oat [1]): 27%
- % Control of Wild Oat at 89 days after application (Wild Oat [2]): 0%
- Crop Yield (crop): 20.1 Bu./Acre
- % Control of Cheat (Bromus secalinus) at 86 days after application (Bromus secalinus): 5%
